Source: US8802705B2, “Pharmaceutical containing PPAR delta agonist” (Senju Pharmaceutical Co., Ltd., priority 2007, dated 2014)

Key:
[1] = tested on: monkey meibomian gland epithelial cells; assay: Effect on cell number increase in meibomian gland epithelial cells (Experimental Example 3, Cell Counting Kit-8); type: cell-based; details: medium renewed every 48 hr (3 x 48 hr), relative to non-addition group = 100%, mean ± SD, N = 5 or 10
Excerpt: An eyelid of monkey isolated and stored in D-PBS was transferred to a clean bench, and cell preparation was aseptically performed as follows.
The isolated eyelid was immersed in 80% ethanol for 30 sec, washed three times with D-PBS added with 1% penicillin-streptomycin (Invitrogen), and transferred to a minimum essential medium (MEM; Invitrogen). The adipose tissue and muscular tissue surrounding the meibomian glandular tissue of the eyelid were removed under a stereomicroscope. They were transferred to MEM containing 0.3 U/mL collagenase A (Roche Diagnostics) and 2.4 U/mL dispase II (Roche Diagnostics), and shaken at 37° C. for 4 hr and at 4° C. overnight. The enzyme-treated tissue was set under a stereomicroscope, and the eyelash and eyelid connective tissue were removed to isolate the meibomian glandular tissue. Trypsin-EDTA (4 mL, Invitrogen) was added to the isolated glandular tissue, and the mixture was incubated at 37° C. for 10 min. After incubation, MEM (5 mL) containing 10% FBS (Invitrogen) was added thereto to stop the enzyme reaction, and the tissue constituting cells were dispersed by repeated suction and discharge of the mixture 5 times using an injection syringe equipped with a 21 G injection needle. The cell dispersion was passed through 100 μm and 40 μm nylon filters (Cell Strainer; Falcon), and cell mass and the like contained therein which could not be treated with the enzyme were removed. The cell suspension passed through the filters was collected in a centrifuge tube (50 mL) and centrifuged at room temperature, 1,500 rpm for 5 min. To the cell layers containing the object cells obtained by the centrifugation was added 80 μL of D-PBS containing 0.5% bovine serum albumin (BSA; Sigma-Aldrich), and the cells were sufficiently suspended therein. Anti-Fibroblast Microbeads (Militenyi Biotec, 20 μL) was added thereto, and the mixture was left standing at room temperature for 30 min. After completion of the reaction with an antibody, 2 mL of D-PBS containing 0.5% BSA was added thereto, and the mixture was centrifuged again at room temperature, 1,500 rpm for 5 min. To the cell layers containing the object cells obtained by the centrifugation was added 1 mL of D-PBS containing 0.5% BSA, and the cells were sufficiently suspended therein. The suspension was added dropwise to LD column (Militenyi Biotec) equilibrated in advance with a column washing solution (D-PBS containing 2 mM EDTA (DOJINDO LABORATORIES) and 0.5% BSA). Then, 2 mL of the column washing solution was added dropwise to the LD column. […] The cells collected in the centrifuge tube were centrifuged at room temperature, 1,500 rpm for 5 min, and the supernatant was removed. The sediment was suspended in Defined Keratinocyte Serum Free Medium (5 mL), centrifuged at room temperature, 1,500 rpm for 5 min, and removed the supernatant. Again, the residue was suspended in DK-SFM (3 mL), centrifuged at room temperature and 1,500 rpm for 5 min, and the supernatant was removed. The cells were suspended in DK-SFM (2 mL), and seeded on a 6 well multi-well plate for cell culture, which had been treated with collagen. The seeded cells were cultured in Defined keratinocyte-Serum Free Medium (DK-SFM; Invitrogen, attached Supplement was added as instructed in the preparation protocol), cultured in an incubator (SANYO) set to 37° C., 5% CO2, 95% air, 100% humidity, and the culture medium was exchanged with a new one every 48 hr until the cells became subconfluent.
As a test substance, compound A, [4-[3-[2-(4-trifluoromethyl)phenyl-4-isopropyl-5-thiazolyl]propionyl]-2-methylphenoxy]acetic acid (hereinafter to be referred to as compound B) or [4-[3-[2-(2-hydroxy-4-chlorophenyl)-5-isopropyl-4-oxazolyl]propionyl]-2-methylphenoxy]acetic acid (hereinafter to be referred to as compound C) was used. […]

[2] = tested on: corneal epithelial defect; assay: Promoting action on corneal epithelial wound healing after corneal epithelial scraping (Experimental Example 2); type: in vivo, Japanese white rabbits; details: rabbit; for ratio of the remaining corneal epithelial defect: mean ± SD, N = 6
Method: Male Japanese white rabbits (KITAYAMA LABES Co., Ltd.) were used. The experimental animals were used according to the International Guiding Principles for Biomedical Research involving Animals.
Compound A was used as a test substance. Compound A was dissolved in the following vehicle at 0.0005% or suspended in the following vehicle at 0.005% and used as an instillation.
As a control for the compound A administration group, the above-mentioned vehicle instillation group free of medicament was used.
Animals received intramuscular injection (1 mL/kg) of a Selactal (2% xylazine; Bayer, Ltd.): Ketalar (5% ketamine; DAIICHI SANKYO COMPANY, LIMITED)=1:1 mixture for systemic anesthesia, and oxybuprocaine hydrochloride instillation (Benoxil instillation 0.4%; Santen Pharmaceutical CO., Ltd.) and then the eyeballs were exposed. Using a trephine with a diameter of 10 mm, a mark (diameter 10 mm) was stamped on the corneal epithelium in the central part of the cornea, and the entire corneal epithelial layer within the marked circle was scraped off with a handy rooter under a stereomicroscope. After scraping, the corneal surface was washed with physiological saline (OTSUKA PHARMACEUTICAL FACTORY, INC.), and the corneal epithelial scraping treatment was completed by placing the eyeball back in the orbitae.
Compound A instillation or an instillation vehicle was instilled by 50 μL each time into the treated eye with a micropipette twice a day on the day of corneal epithelial scraping and four times a day from the next day to the completion of the test.
Using the time point when the corneal epithelial scraping was completed in all animals as a test starting time (0 hr), the area of corneal epithelium defect was quantified 40, 48, 56 and 64 hr later, based on which wound healing of the corneal epithelium was evaluated. To be precise, 0.1% fluorescein sodium (Wako Pure Chemical Industries, Ltd.) solution (10 μL) was instilled into the treated eye at each time point, and the anterior ocular segment of the animals was immediately photographed using a slit lamp with a blue filter, whereby the fluorescein-stained corneal epithelial deficient region was recorded. The developed photograph was stored as digital images on a computer, and the area of the fluorescein-stained corneal epithelial defect was measured using an image analysis software (Image-Pro Plus).
The area of the fluorescein-stained corneal epithelial defect measured at each time point was calculated based on the initial value of each animal as 100%, and taken as the ratio of the remaining corneal epithelial defect. The ratio of the remaining corneal epithelial defect at each time point was compared between the vehicle instillation group and compound A instillation group using the t-test. A critical value of less than 5% as a result of the test was judged as significant.

Cc1cc2c(CCc3sc(-c4ccc(C(F)(F)F)cc4)nc3C(C)C)noc2cc1OCC(=O)O [compound A, [3-[2-[4-isopropyl-2-(4-trifluoromethyl)phenyl-5-thiazolyl]ethyl]-5-methyl-1,2-benzisoxazol-6-yl]oxyacetic acid]
cell number increase ratio ([1]; 10^−6 M): 189.8 ± 13.1%
cell number increase ratio ([1]; 10^−7 M): 177.1 ± 9.7%
cell number increase ratio ([1]; 10^−8 M): 175.3 ± 9.0%
ratio of the remaining corneal epithelial defect ([2]; 0.0005% instillation, 0 hr (initial value)): 100.0 ± 0.0%
ratio of the remaining corneal epithelial defect ([2]; 0.0005% instillation, 40 hr later, initial value = 100%): 24.8 ± 2.7%
ratio of the remaining corneal epithelial defect ([2]; 0.0005% instillation, 48 hr later, initial value = 100%): 11.8 ± 2.9 %
ratio of the remaining corneal epithelial defect ([2]; 0.0005% instillation, 56 hr later, initial value = 100%): 3.8 ± 2.8%
ratio of the remaining corneal epithelial defect ([2]; 0.0005% instillation, 64 hr later, initial value = 100%): 0.8 ± 1.4%
ratio of the remaining corneal epithelial defect ([2]; 0.005% instillation, 0 hr (initial value)): 100.0 ± 0.0%
ratio of the remaining corneal epithelial defect ([2]; 0.005% instillation, 40 hr later, initial value = 100%): 18.6 ± 8.0 %
ratio of the remaining corneal epithelial defect ([2]; 0.005% instillation, 48 hr later, initial value = 100%): 9.1 ± 6.4 %
ratio of the remaining corneal epithelial defect ([2]; 0.005% instillation, 56 hr later, initial value = 100%): 3.4 ± 3.7%
ratio of the remaining corneal epithelial defect ([2]; 0.005% instillation, 64 hr later, initial value = 100%): 0.9 ± 1.3%
effect on wound healing of corneal epithelial defect (in words) ([2]; instillation 0.0005% or 0.005%, conclusion of the test): promotes wound healing of corneal epithelial defect
